The test system of one data set is HUVEC. In words: Inhibition of unstimulated HUVEC cell proliferation. To be noted: Homo sapiens. The format is functional, cell-based.
Data set [1] has as its target Vascular endothelial growth factor receptor 1 (Homo sapiens, UniProt P17948).
Data set [2] concerns the target Vascular endothelial growth factor receptor 2 (Homo sapiens, UniProt P35968).
Data set [3] concerns the target Fibroblast growth factor receptor (Homo sapiens, UniProt P22607+P11362+P22455+P21802). As to conditions: huvec.
Data set [4] concerns the target Vascular endothelial growth factor receptor (Homo sapiens, UniProt P17948+P35916+P35968). To be noted: huvec.
Data set [5] deals with Fibroblast growth factor receptor 1 (Homo sapiens, UniProt P11362).
Data set [6] in a line: Mouse plasma levels are obtained 24 hr after oral administration of 100 mg/kg of compound. Format: ADME, organism-based. The arrangement: dose 100 mg/kg, route oral. As to conditions: read-out: Plasma level.
A short description of data set [7]: Mouse plasma levels are obtained 6 hr after oral administration of 100 mg/kg of compound. The format is ADME, organism-based. The arrangement: dose 100 mg/kg, route oral. As to conditions: read-out: Plasma level.
Data set [8] relates to Rattus norvegicus. In words: Percent inhibition of VEGF-mediated estradiol benzoate-induced rat uterus weight gain at 100 mg/kg oral dose. The format is functional.
Data set [9] concerns Rattus norvegicus. In words: Percent inhibition of VEGF-mediated estradiol benzoate-induced rat uterus weight gain at 60 mg/kg oral dose. The format is functional.
Data set [10] has as its system Rattus norvegicus. In words: Percent inhibition of VEGF-mediated estradiol benzoate-induced rat uterus weight gain at 100 mg/kg oral dose; NA is Not Active. The arrangement: dose 100 mg/kg. Format: functional, organism-based.

Activity calls are given as the source filed them. No cut-off for these calls is given here. Some results are limits rather than exact numbers.

Sequence of Fibroblast growth factor receptor 1 (P11362 whole entry): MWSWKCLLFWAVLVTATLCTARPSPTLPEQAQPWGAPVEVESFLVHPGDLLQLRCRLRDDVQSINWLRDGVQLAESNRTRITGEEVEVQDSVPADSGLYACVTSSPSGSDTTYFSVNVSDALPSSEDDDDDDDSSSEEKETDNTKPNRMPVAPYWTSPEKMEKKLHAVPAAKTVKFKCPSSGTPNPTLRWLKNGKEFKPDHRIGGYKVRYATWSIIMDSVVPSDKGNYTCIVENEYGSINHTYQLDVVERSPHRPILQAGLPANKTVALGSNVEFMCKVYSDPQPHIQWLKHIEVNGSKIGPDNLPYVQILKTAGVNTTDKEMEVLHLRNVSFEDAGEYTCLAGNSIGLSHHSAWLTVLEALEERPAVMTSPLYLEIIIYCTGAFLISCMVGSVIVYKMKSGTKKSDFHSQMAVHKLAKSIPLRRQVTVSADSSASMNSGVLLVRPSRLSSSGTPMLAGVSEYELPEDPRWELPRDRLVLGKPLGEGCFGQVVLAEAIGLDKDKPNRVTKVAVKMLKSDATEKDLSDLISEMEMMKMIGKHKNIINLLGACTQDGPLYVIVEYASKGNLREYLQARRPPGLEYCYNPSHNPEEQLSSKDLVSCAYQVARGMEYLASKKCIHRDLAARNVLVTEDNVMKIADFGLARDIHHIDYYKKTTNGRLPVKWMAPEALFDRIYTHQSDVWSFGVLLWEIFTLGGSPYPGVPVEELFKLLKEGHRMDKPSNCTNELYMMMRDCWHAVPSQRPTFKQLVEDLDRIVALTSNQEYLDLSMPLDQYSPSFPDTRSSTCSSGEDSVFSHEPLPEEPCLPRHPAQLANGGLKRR
Sequence of Vascular endothelial growth factor receptor 2 (P35968 whole entry): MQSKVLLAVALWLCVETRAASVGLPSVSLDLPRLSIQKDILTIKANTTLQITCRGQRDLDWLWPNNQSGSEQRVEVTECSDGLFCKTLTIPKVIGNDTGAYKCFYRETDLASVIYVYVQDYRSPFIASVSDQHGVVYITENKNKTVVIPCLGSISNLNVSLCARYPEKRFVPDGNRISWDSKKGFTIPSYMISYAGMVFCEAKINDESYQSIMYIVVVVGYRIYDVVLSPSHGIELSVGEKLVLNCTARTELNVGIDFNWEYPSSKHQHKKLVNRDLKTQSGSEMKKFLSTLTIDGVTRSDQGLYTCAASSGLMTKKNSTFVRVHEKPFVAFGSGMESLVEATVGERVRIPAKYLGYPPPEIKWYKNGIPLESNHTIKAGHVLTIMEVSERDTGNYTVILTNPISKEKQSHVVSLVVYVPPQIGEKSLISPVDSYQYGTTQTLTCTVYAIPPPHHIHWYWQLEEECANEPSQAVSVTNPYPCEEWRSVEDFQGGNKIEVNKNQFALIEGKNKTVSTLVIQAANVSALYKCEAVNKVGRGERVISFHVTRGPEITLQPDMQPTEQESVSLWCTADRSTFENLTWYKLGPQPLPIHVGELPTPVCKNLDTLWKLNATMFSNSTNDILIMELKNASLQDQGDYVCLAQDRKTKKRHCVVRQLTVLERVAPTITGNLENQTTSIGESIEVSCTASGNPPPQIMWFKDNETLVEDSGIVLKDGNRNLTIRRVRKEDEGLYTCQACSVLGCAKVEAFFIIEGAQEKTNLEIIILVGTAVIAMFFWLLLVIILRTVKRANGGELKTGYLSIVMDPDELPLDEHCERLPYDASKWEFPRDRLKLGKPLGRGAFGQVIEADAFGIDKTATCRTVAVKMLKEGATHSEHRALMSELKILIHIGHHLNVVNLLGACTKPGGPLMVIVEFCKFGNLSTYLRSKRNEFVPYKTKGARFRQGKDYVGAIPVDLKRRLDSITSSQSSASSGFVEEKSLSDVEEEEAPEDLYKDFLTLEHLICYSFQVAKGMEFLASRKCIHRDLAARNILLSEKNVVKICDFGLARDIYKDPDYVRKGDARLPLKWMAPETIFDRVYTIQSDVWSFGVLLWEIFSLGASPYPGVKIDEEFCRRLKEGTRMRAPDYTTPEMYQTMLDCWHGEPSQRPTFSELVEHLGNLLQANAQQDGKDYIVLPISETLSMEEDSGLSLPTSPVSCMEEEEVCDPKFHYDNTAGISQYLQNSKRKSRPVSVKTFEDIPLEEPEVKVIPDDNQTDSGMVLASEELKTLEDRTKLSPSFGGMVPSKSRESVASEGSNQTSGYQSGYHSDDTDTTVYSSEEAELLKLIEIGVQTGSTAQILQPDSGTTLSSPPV
Sequence of Vascular endothelial growth factor receptor 1 (P17948 whole entry): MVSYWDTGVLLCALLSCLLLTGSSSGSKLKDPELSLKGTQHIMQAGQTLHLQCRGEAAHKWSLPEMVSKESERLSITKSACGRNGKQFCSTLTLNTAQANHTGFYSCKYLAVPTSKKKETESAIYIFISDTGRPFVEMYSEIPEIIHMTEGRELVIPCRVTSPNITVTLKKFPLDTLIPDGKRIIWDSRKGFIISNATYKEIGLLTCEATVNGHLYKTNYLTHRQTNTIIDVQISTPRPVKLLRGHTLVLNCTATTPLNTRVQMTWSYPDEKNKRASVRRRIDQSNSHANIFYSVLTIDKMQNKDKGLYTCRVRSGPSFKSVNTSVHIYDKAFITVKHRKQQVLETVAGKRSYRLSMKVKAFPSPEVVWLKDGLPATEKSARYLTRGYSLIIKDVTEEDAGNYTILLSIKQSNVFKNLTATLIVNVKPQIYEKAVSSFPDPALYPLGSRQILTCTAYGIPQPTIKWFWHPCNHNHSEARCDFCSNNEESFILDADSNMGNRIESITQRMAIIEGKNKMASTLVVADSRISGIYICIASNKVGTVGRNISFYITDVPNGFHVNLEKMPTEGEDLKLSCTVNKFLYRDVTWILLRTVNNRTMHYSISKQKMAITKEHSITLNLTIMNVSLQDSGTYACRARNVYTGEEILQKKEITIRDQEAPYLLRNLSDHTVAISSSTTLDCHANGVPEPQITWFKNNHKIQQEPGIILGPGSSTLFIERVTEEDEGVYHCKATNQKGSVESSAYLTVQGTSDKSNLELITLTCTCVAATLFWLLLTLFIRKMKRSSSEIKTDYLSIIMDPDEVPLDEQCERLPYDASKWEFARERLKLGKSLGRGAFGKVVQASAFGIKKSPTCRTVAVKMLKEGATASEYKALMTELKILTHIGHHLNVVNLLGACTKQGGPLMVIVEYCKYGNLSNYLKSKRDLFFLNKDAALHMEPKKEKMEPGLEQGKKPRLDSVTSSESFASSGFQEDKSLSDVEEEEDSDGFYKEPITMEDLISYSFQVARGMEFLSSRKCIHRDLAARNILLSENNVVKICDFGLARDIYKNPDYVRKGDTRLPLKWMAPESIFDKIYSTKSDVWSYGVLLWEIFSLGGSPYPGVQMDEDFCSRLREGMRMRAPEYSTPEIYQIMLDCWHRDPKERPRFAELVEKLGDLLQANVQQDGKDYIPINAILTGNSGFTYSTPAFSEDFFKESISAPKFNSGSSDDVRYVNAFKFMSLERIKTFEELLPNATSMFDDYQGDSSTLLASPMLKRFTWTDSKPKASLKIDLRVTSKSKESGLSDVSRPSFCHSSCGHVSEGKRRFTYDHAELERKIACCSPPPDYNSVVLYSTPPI

With `COc1cc2c(Nc3c(F)cc(Br)cc3F)ncnc2cc1OCCn1ccnn1`, the 50% inhibitory concentration (IC50) (as a rule, the concentration needed to halve the response being measured) in the data set with HUVEC is 1000 nM; in data set [1] it was 800 nM; in data set [2], 40 nM; in data set [3], 100 nM; in [4] it was 20 nM.

Regarding `COc1cc2c(Nc3ccc(Br)cc3F)ncnc2cc1OCCn1ccnn1` [ZD-4190 FREE BASE], the IC50 with HUVEC is over 10000 nM; in [5], over 100000 nM; in data set [1], 700 nM; in data set [2], 30 nM; in data set [3], 1500 nM.

Take `COc1cc2ncnc(Nc3ccc(F)c(Cl)c3)c2cc1OC`: the IC50 in data set [5] was over 100000 nM; in [1], over 100000 nM; in [2] it was 800 nM.

Regarding `COCCOc1cc2ncnc(Nc3ccc(Cl)cc3F)c2cc1OC`, in data set [6], the concentration at 24 h was under 0.1 µM. Also, the concentration at 6 h in data set [7] is 12 µM. Further, the inhibition in vivo (commonly the share of the control response that was lost under treatment) at 100 mg/kg in the data set on Rattus norvegicus [8] came out at 31%. Besides, the 50% inhibitory concentration (IC50) in data set [5] worked out at 27000 nM; in data set [1], 400 nM; in data set [2], 7 nM.

For `COc1cc2c(Nc3ccc(Cl)cc3F)ncnc2cc1OCCN1CCOCC1`, the results for the half-inhibitory concentration (IC50) in data set [5], in [1] and in data set [2] were 19000 nM, 1100 nM and 40 nM, respectively.

Regarding `COc1cc2ncnc(Nc3ccc(Cl)cc3)c2cc1OC`, the half-inhibitory concentration (IC50) in data set [5] was over 100000 nM; in data set [1] it was 11000 nM; in [2], 800 nM.

Turning to `COc1cc2c(Nc3ccc(Cl)cc3F)ncnc2cc1OCCCCN1CCOCC1`, the values for the IC50 in [5], in data set [1] and in [2] were 1500 nM, 300 nM and 40 nM, respectively.

`COc1cc2c(Nc3ccc(Cl)cc3F)ncnc2cc1OCCn1ccnc1`: in data set [6], the concentration at 24 h was under 0.1 µM. The concentration at 6 h in data set [7] is 11 µM.

Molecule `COCCOc1cc2nncc(Nc3cc(O)c(Cl)cc3F)c2cc1OC` gave an IC50 in [1] of 50 nM.

Consider `COCCOc1cc2ncnc(Nc3cc(O)c(Cl)cc3F)c2cc1OC`, for which, in data set [6], the concentration at 24 h was under 0.1 µM. Also, the concentration at 6 h in data set [7] was under 0.1 µM. For the same molecule, the IC50 in the data set with HUVEC was 5000 nM; in data set [5], 7400 nM; in [1], under 2 nM; in [2], under 2 nM; in data set [3] it was 800 nM; in [4] it was 4 nM.

Regarding `COc1cc2c(Nc3ccc(Cl)cc3F)ncnc2cc1OCc1ccncc1`, the half-inhibitory concentration (IC50) was over 33000 nM in [5], 1200 nM in [1] and 60 nM in data set [2].

Take `COCCOc1cc2nncc(Nc3ccc(Cl)cc3F)c2cc1OC`: in [1], the IC50 worked out at 63000 nM.

With `COc1cc2ncnc(Nc3ccc(I)cc3Cl)c2cc1OC`, the half-inhibitory concentration (IC50) in [1] is over 33000 nM.

For the molecule `COCC(=O)Nc1cc2ncnc(Nc3cc(O)c(C)cc3F)c2cc1OC`, the IC50 in data set [5] was over 100000 nM; in data set [1], 300 nM; in data set [2], 300 nM.

Take `COCCOc1cc2ncnc(Nc3ccc(Cl)cc3F)c2cc1OCCOC`: the IC50 was over 100000 nM in data set [5], 900 nM in data set [1] and 60 nM in data set [2].

As to `COCC(=O)Nc1cc2ncnc(Nc3ccc(Cl)cc3F)c2cc1OC`, the concentration for half-maximal inhibition (IC50) was over 50000 nM in data set [5], over 100000 nM in [1] and over 100000 nM in data set [2].

With `COc1cc2c(Nc3ccc(Cl)cc3F)ncnc2cc1OC1CCN(C)CC1`, the figures for the half-inhibitory concentration (IC50) in data set [5], in [1] and in data set [2] were 40000 nM, 15000 nM and 1500 nM, respectively.

On to `COCCOc1cc2nccc(Nc3ccc(Cl)cc3F)c2cc1OC`, for which the concentration at 6 h in data set [7] was determined as 3 µM. The half-inhibitory concentration (IC50) in data set [5] turned out to be 9300 nM; in data set [1] it was 300 nM; in [2], 10 nM.

In the case of `COc1cc2ncnc(Nc3cc(O)c(C)cc3F)c2cc1OC`, the concentration at 24 h in [6] was under 0.2 µM. Moreover, the concentration at 6 h in data set [7] is under 0.2 µM. The inhibition in vivo at 60 mg/kg in the data set with Rattus norvegicus [9] came to 80%. Besides, the half-maximal inhibitory concentration (IC50) in data set [5] was 2500 nM; in data set [1], 30 nM; in data set [2], 3 nM.

Take `COCCOc1ccc2c(Nc3ccc(Cl)cc3F)ncnc2c1`: the IC50 was determined as 16000 nM in data set [5] and 1500 nM in [1].

Take `COc1cc2ncnc(Nc3cccc(O)c3)c2cc1OC`: the 50% inhibitory concentration (IC50) in data set [5] was 11000 nM; in [1], 200 nM.

In the case of `COc1cc2c(Nc3ccc(Cl)cc3F)ncnc2cc1OCCCN1CCOCC1`, the concentration at 24 h in data set [6] stood at 0.8 µM. Further, the concentration at 6 h in [7] came to 4 µM. The molecule further came in with an inhibition in vivo at 100 mg/kg in the data set on Rattus norvegicus [8] of 59%. Moreover, the IC50 was 6700 nM in [5] and 9 nM in data set [2].

With `COc1cc2c(Nc3ccc(Cl)cc3F)ncnc2cc1OCCn1ccnn1`, in [6], the concentration at 24 h amounted to 10 µM. For the same molecule, the concentration at 6 h in data set [7] is 49 µM. The same molecule returned an IC50 in the data set on HUVEC of 5000 nM.

Take `COc1cc2ncnc(Nc3ccccc3F)c2cc1OC`: the half-maximal inhibitory concentration (IC50) in data set [5] is over 100000 nM; in data set [1] it was 26000 nM; in data set [2], 2700 nM.

Consider `COc1cc2c(Nc3ccc(C#N)cc3F)ncnc2cc1OCCn1ccnn1`, for which the IC50 in the data set with HUVEC is over 10000 nM; in data set [5], 45000 nM; in data set [1] it was 8100 nM; in data set [2], 300 nM; in data set [3], 3000 nM; in data set [4] it was 600 nM.

Take `COCCOc1cc2nccc(Nc3cc(O)c(Cl)cc3F)c2cc1OC`: the 50% inhibitory concentration (IC50) in data set [5] was 1400 nM; in data set [1] it was 3 nM; in data set [2] it was under 2 nM.

`COCCOc1cc2ncnc(Nc3cccc(O)c3)c2cc1OC`: the inhibition entry with Rattus norvegicus [10] is “inactive”. In addition, the IC50 in data set [5] was 7000 nM; in [1], 30 nM; in data set [2], under 5 nM.

Take `COc1cc2c(Nc3ccc(Cl)cc3F)ncnc2cc1OCCOCCN1CCOCC1`: in data set [6], the concentration at 24 h was under 0.1 µM. In addition, in data set [7], the concentration at 6 h is 11 µM. Besides, the figures for the 50% inhibitory concentration (IC50) in [5], in data set [1] and in [2] were 20000 nM, 500 nM and 60 nM, respectively.

Regarding `COc1cc2c(Nc3ccc(Cl)cc3F)ncnc2cc1OCCN(C)c1ccncc1`, the IC50 was 1600 nM in [5], 100 nM in data set [1] and 6 nM in data set [2].

In the case of `COc1cc2ncnc(Nc3ccc(Cl)cc3F)c2cc1OC`, the inhibition in vivo at 100 mg/kg in the data set on Rattus norvegicus [8] worked out at 34%. Moreover, the IC50 in data set [5] was found to be 7000 nM; in data set [2], 100 nM.

On to `COc1cc2ncnc(Nc3ccc(F)cc3F)c2cc1OC`, for which the figures for the half-maximal inhibitory concentration (IC50) in [5], in data set [1] and in [2] were 58000 nM, 22000 nM and 2900 nM, respectively.

For `COc1cc2ncnc(Nc3ccc(I)cc3F)c2cc1OC`, the IC50 in [1] was found to be 800 nM.

The values above are taken from ChEMBL document CHEMBL1132549, “Design and structure-activity relationship of a new class of potent VEGF receptor tyrosine kinase inhibitors” (J Med Chem, 1999).
